This is an account of results in patent publication US10947196B2, “Beta adrenergic agonist and methods of using the same” (CURASEN THERAPEUTICS, INC., priority 2019, dated 2021).

Read-outs that look alike come from different tables or passages of the source.

One test addresses β1-adrenergic receptor (Homo sapiens (Human), UniProt P08588). The test can be described thus: cAMP Gs dynamic HTRF assay, β1 expressing CHO cells. To be noted: B1-AR. The format is cell-based. The method, boiled down:
(§1)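 Intracellular cAMP quantified by Eu-donor/d2-acceptor HTRF after 30 min compound exposure at 37° C in stimulation buffer with IBMX. Concentrations ran 10 μM top, 5-fold steps, 10 points. Cell lines: 1321N1 astrocytoma and CHO expressing β1 or β2; EC50 via four-parameter fit, relative efficacy against isoproterenol.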
(In TR-FRET formats the signal depends on donor and acceptor labels being close together.)

The target of another test is β2 adrenergic receptor (Homo sapiens (Human), UniProt P07550). The test can be described thus: cAMP Gs dynamic HTRF assay, β2 expressing CHO cells. The format is cell-based. The note with it: B2-AR. The method in brief: as §1
Where [1] appears, read: CHO-K cells, read-out: Average EC50 [Receptor subtype: B1-AR, Cell type: CHO-K].
Where [2] appears, read: CHO-K1 (HitHunter), read-out: Average pEC50 [Receptor subtype: B2-AR, Cell type: CHO-K1 (HitHunter)] (converted).
The mark [3] stands for this setting: CHO-K cells, read-out: Average EC50 [Receptor subtype: B2-AR, Cell type: CHO-K].
The mark [4] stands for this setting: CHO-K1 (HitHunter), read-out: Average pEC50 [Receptor subtype: B1-AR, Cell type: CHO-K1 (HitHunter)] (converted).
The mark [5] stands for this setting: Average pEC50 [Receptor subtype: B1-AR, Cell type: CHO-K1 (HitHunter)], CHO-K1 (HitHunter).
[6] abbreviates: Average pEC50 [Receptor subtype: B2-AR, Cell type: CHO-K1 (HitHunter)], CHO-K1 (HitHunter).

β2 adrenergic receptor, sequence (P07550 whole entry, species assumed): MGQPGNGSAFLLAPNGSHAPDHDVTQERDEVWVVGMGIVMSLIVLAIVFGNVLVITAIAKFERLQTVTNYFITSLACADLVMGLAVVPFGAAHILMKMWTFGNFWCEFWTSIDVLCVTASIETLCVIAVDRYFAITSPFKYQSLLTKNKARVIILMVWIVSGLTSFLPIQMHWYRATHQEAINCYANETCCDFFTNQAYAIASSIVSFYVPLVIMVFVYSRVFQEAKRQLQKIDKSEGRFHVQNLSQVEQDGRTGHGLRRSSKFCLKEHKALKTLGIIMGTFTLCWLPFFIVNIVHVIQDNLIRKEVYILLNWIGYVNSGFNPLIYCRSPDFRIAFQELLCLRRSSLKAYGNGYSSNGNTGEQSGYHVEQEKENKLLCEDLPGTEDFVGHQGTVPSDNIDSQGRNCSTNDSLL
β1-adrenergic receptor, sequence (P08588 whole entry, species assumed): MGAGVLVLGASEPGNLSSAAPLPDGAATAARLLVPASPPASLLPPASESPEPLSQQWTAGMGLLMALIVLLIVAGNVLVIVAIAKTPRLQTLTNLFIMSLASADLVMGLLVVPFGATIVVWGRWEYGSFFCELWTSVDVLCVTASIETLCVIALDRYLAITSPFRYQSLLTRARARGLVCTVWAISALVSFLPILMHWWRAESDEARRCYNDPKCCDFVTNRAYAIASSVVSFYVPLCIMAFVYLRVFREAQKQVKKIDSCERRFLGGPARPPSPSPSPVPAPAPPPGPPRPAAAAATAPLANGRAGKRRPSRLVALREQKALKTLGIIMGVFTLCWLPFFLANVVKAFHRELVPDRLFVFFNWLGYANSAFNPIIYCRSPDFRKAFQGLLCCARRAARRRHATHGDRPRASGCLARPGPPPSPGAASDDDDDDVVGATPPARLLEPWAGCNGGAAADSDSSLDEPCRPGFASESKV

In the case of `CC(C)(COc1ccccc1)NC[C@@H](O)c1cccc(C(F)(F)F)n1` [Compound 03-185], on β1-adrenergic receptor (CHO-K1 (HitHunter)), the “Average pEC50 [Receptor subtype: B1-AR; Cell type: CHO-K1 (HitHunter)]” value was “D (D < 6)”. The EC50 on β1-adrenergic receptor (setting [1]), on β2 adrenergic receptor (setting [2]) and on β2 adrenergic receptor (setting [3]) was over 1000 nM each time.
In the case of `CC(C)(C)NC[C@@H](O)c1cccc(OC(F)(F)F)n1` [Compound 03-186], the EC50 was over 1000 nM on β1-adrenergic receptor (setting [4]), over 1000 nM on β1-adrenergic receptor (setting [1]), 100 to 1000 nM at β2 adrenergic receptor (setting [2]) and 100 to 1000 nM on β2 adrenergic receptor (setting [3]).
Take `CC(C)(C)NC[C@H](O)c1cccc(OC(C)(C)C)n1` [Compound 03-196]: the values for the EC50 on β1-adrenergic receptor (setting [4]) and at β2 adrenergic receptor (setting [2]) were 10 to 100 nM and under 10 nM, respectively.
In the same order, the values of `CC(C)(C)NC[C@H](O)c1cccc(C2CCCC2)n1` [Compound 03-198] are over 1000 nM and 10 to 100 nM.
Turning to `CC(C)(C)NC[C@H](O)c1cccc(-c2cnn[nH]2)n1` [Compound 03-200], the values for the EC50 on β1-adrenergic receptor (setting [4]) and at β2 adrenergic receptor (setting [2]) were 10 to 100 nM and under 10 nM, respectively.
For `CC(C)(C)NC[C@H](O)c1cccc(C2(C#N)CC2)n1` [Compound 03-206], the EC50 at β1-adrenergic receptor (setting [4]) and at β2 adrenergic receptor (setting [2]) was under 10 nM throughout.
Turning to `CC(C)(C)NC[C@H](O)c1cccc(C(C)(C)C#N)n1` [Compound 03-207], the EC50 on β1-adrenergic receptor (setting [4]) and at β2 adrenergic receptor (setting [2]) was under 10 nM in each case.
Regarding `CC(C)(C)NC[C@@H](O)c1ccnc(C(F)(F)F)c1` [Compound 03-211], the EC50 on β1-adrenergic receptor (setting [4]) and on β2 adrenergic receptor (setting [2]) was 100 to 1000 nM in each case.
On to `CC(C)(C)NC[C@H](O)c1ccc(C#N)cn1` [Compound 03-212], for which the EC50 is over 1000 nM at β1-adrenergic receptor (setting [4]) and 100 to 1000 nM on β2 adrenergic receptor (setting [2]).
In the same order, the values of `CC(C)(C)NC[C@H](O)c1cccc(-n2ccnc2)n1` [Compound 03-213] are over 1000 nM and 10 to 100 nM.
Consider `CC(C)(C)NC[C@H](O)c1cccc(-n2cccn2)n1` [Compound 03-214], for which the EC50 on β1-adrenergic receptor (setting [4]) was 100 to 1000 nM; on β2 adrenergic receptor (setting [2]), under 10 nM.
In the same order, the values of `Cn1ccc(-c2cccc([C@@H](O)CNC(C)(C)C)n2)n1` [Compound 03-216] are over 1000 nM and 10 to 100 nM.
The corresponding values for `CC(C)(C)NC[C@@H](O)c1cccc(-c2ccncc2)n1` [Compound 03-220] are over 1000 nM and 10 to 100 nM.
With `CC(C)(C)NC[C@H](O)c1cccc(-c2ccncc2)n1` [Compound 03-221], the EC50 at β1-adrenergic receptor (setting [4]) was 10 to 100 nM; on β2 adrenergic receptor (setting [2]), under 10 nM.
The corresponding values for `CC(C)(C)NC[C@@H](O)c1cccc(-n2cccn2)n1` [Compound 03-225] are 100 to 1000 nM and 100 to 1000 nM.
In the same order, the values of `Cn1ccc(-c2cccc([C@H](O)CNC(C)(C)C)n2)n1` [Compound 03-226] are over 1000 nM and 100 to 1000 nM.
In the same order, the values of `CC(C)(C)NC[C@@H](O)c1cccc(NC2CCC2)n1` [Compound 03-229] are over 1000 nM and over 1000 nM.
In the case of `CC(C)(C)NC[C@H](O)c1cccc(Cl)n1` [Compound 03-231], the figures for the EC50 at β1-adrenergic receptor (setting [4]) and at β2 adrenergic receptor (setting [2]) were over 1000 nM and 10 to 100 nM, respectively.
In the same order, the values of `CC(C)Nc1cccc([C@H](O)CNC(C)(C)C)n1` [Compound 03-232] are 10 to 100 nM and 10 to 100 nM.
The corresponding values for `CC(C)(C)NC[C@@H](O)c1cccc(C2=CCCC2)n1` [Compound 03-234] are 10 to 100 nM and 10 to 100 nM.
In the same order, the values of `O[C@H](CNC1(C(F)(F)F)CC1)c1cccc(C(F)(F)F)n1` [Compound 03-235] are over 1000 nM and over 1000 nM.
Consider `CC(=O)Nc1cccc([C@H](O)CNC(C)(C)C)n1` [Compound 03-239], for which the figures for the EC50 on β1-adrenergic receptor (setting [4]) and at β2 adrenergic receptor (setting [2]) were 100 to 1000 nM and 10 to 100 nM, respectively.
In the same order, the values of `CC(C)(C)NC[C@H](O)c1cccnc1-n1ccnn1` [Compound 03-241] are over 1000 nM and over 1000 nM.
In the same order, the values of `CC(C)(C)NC[C@@H](O)c1cccc(-c2ccc[nH]2)n1` [Compound 03-244] are 100 to 1000 nM and 10 to 100 nM.
The corresponding values for `CC(C)(C)NC[C@H](O)c1cccc(C2=N[C@H](C(=O)O)CS2)n1` [Compound 03-246] are over 1000 nM and over 1000 nM.
In the case of `Cc1cnccc1[C@@H](O)CNC(C)(C)C` [Compound 03-247, (R)-2-(tert-butylamino)-1-(3-methylpyridin-4-yl)ethan-1-ol], the EC50 at β1-adrenergic receptor (setting [4]) and on β2 adrenergic receptor (setting [2]) was over 1000 nM in each case.
For the compound `CC(C)(C)NC[C@@H](O)c1cccc(NC2CC2)n1` [Compound 03-250], the EC50 on β1-adrenergic receptor (setting [4]) is over 1000 nM; on β2 adrenergic receptor (setting [2]), 100 to 1000 nM.
In the same order, the values of `CNCc1cccc([C@@H](O)CNC(C)(C)C)n1` [Compound 03-252] are over 1000 nM and over 1000 nM.
The corresponding values for `CNCc1cccc([C@@H](O)CN[C@H](C)Cc2ccc(OC)cc2)n1` [Compound 03-254] are over 1000 nM and 100 to 1000 nM.
Take `Cc1ncc(F)cc1[C@@H](O)CNC(C)(C)C` [Compound 03-258]: the values for the EC50 at β1-adrenergic receptor (setting [4]) and at β2 adrenergic receptor (setting [2]) were 100 to 1000 nM and 10 to 100 nM, respectively.
In the same order, the values of `COc1ccc([C@@H](O)CNC(C)(C)C)c(C)n1` [Compound 03-259] are 10 to 100 nM and under 10 nM.
With `COc1ccc(C[C@@H](C)NC[C@H](O)c2cc(F)cnc2C)cc1` [Compound 03-260], the EC50 is over 1000 nM at β1-adrenergic receptor (setting [5]) and under 10 nM on β2 adrenergic receptor (setting [6]).
For `Cc1ncc([C@@H](O)CNC(C)(C)C)c(C)n1` [Compound 03-261], the figures for the EC50 at β1-adrenergic receptor (setting [4]) and at β2 adrenergic receptor (setting [2]) were over 1000 nM and 100 to 1000 nM, respectively.
The corresponding values for `CCNc1cccc([C@@H](O)CNC(C)(C)C)n1` [Compound 03-262] are 10 to 100 nM and under 10 nM.
In the case of `CC(C)(C)NC[C@H](O)c1cccc(NC2CC(F)(F)C2)n1` [Compound 03-263], the EC50 on β1-adrenergic receptor (setting [4]) is 10 to 100 nM; on β2 adrenergic receptor (setting [2]), under 10 nM.
The corresponding values for `CC(C)(C)NC[C@H](O)c1cccc(NC2(C)CC2)n1` [Compound 03-264] are 10 to 100 nM and under 10 nM.
In the same order, the values of `COc1ccc(C[C@@H](C)NC[C@H](O)c2cccc(C3CCCC3)n2)cc1` [Compound 03-265] are 10 to 100 nM and under 10 nM.
Regarding `CC(C)(C)NC[C@H](O)c1cccc(NCC(F)(F)F)n1` [Compound 03-266], the EC50 at β1-adrenergic receptor (setting [4]) and on β2 adrenergic receptor (setting [2]) was under 10 nM in each case.
With `Cc1nc(C2CC2)ccc1[C@@H](O)CNC(C)(C)C` [Compound 03-268], the EC50 was 10 to 100 nM on β1-adrenergic receptor (setting [4]) and under 10 nM on β2 adrenergic receptor (setting [2]).
Consider `COc1ccc(C[C@@H](C)NC[C@H](O)c2ccc(C3CC3)nc2C)cc1` [Compound 03-269], for which the “Average pEC50 [Receptor subtype: B1-AR; Cell type: CHO-K1 (HitHunter)]” value on β1-adrenergic receptor (CHO-K1 (HitHunter)) is “B (B = 8-7)”. Further, on β2 adrenergic receptor (CHO-K1 (HitHunter)), the “Average pEC50 [Receptor subtype: B2-AR; Cell type: CHO-K1 (HitHunter)]” value is “A (A > 8)”.
On to `COc1ccc(C[C@@H](C)NC[C@H](O)c2cnc(C)nc2C)cc1` [Compound 03-270], for which the EC50 at β1-adrenergic receptor (setting [5]) was over 1000 nM; on β2 adrenergic receptor (setting [6]), 10 to 100 nM.
Turning to `COc1ccc(C[C@@H](C)NC[C@H](O)c2cc(Cl)cnc2C)cc1` [Compound 03-271], the EC50 on β1-adrenergic receptor (setting [4]) was 100 to 1000 nM; on β2 adrenergic receptor (setting [2]) it was 10 to 100 nM.
In the same order, the values of `CC(C)(C)NC[C@@H](O)c1cccc(OC(C)(C)C)n1` [Compound 03-273] are over 1000 nM and 100 to 1000 nM.
In the same order, the values of `Cc1nc(NC2CC2)ccc1[C@@H](O)CNC(C)(C)C` [Compound 03-274] are over 1000 nM and 10 to 100 nM.
